Entries after “also recorded” stand apart in the source; their conditions may differ. Values belong to the compound of their own block, whether it stands above or below them.
How the values were obtained:
Format in all cases: biochemical, Gracilariopsis lemaneiformis
[1] = system: α-1,4-glucan lyase; experiment: Substrate specificity of α-1,4-glucan lyase, long term incubation (24 h), continuation of Table IV; settings: for Product released: 24 h; for release of 1,5-anhydrofructose and glucose checked by TLC on Silica gel 60: after 24 h of incubation; for activity of the lyase with the substrate (in words): long term incubation at 30° C.
Protocol: The incubation time was 24 h.
(§1) The reaction mixture for the assay of α-1,4-glucan lyase was composed of 240 μl 62.5 mM Mops-NaOH containing 6 mg soluble starch (pH 6.2), the enzyme preparation and distilled water to a final volume of 300 μl. The reaction was carried out at 30° C. for 10-30 min. Liberated 1,5-anhydrofructose was determined by monitoring the absorbance at 546 nm after the addition of 3,5-dinitrosalicylic acid reagent. Soluble starch in the reaction mixture may be replaced by other substrates and the final substrate concentration may be varied as indicated in the text. The reaction time and enzyme concentration used in enzyme activity assay have been chosen to ensure the linearity of the reaction rate. One unit of α-1,4-glucan lyase activity is defined as the amount of enzyme which liberates 1μmol of 1,5-anhydrofructose min^-1 under the conditions described above.

[2] = system: α-1,4-glucan lyase; experiment: Inhibition studies of α-1,4-glucan lyase activity; settings: for inhibition of the enzyme: 50mM; for inhibition of the algal enzyme (in words): summary statement; for inhibition of enzymic activity: 0.1M
Protocol: as §1

[3] = system: α-1,4-glucan lyase; experiment: Substrate specificity of α-1,4-glucan lyase (release of 1,5-anhydrofructose, DNS method, 15 min); settings: for substrate inhibition: higher substrate concentrations, 10 mg ml^-1 compared with 2 and 4 mg ml^-1; for Activity (% of Maltoheptaose): substrate 10 mg ml^-1, incubation 15 min
Protocol: When amylopectin was used as a substrate, the activity reached maximum 8 mg ml^-1 and then decreased slightly at 20 mg ml^-1. The same results were obtained with soluble starch and maltoheptaose. When maltotriose and maltose were used as substrates, the activity reached maximum at 2 mg ml^-1 and 6 mg ml^-1, respectively. Substrate inhibition became evident at higher concentrations, especially in the case of maltotriose. […] Generally, the inhibition degree decreased with the increase in DP number (Degree of Polymerization). When the activity measured at 10 mg ml^-1 was compared at 2 mg ml^-1 and 4 mg ml^-1, substrate inhibition could be clearly seen among the maltosaccharides of DP 3-5. In maltohexaose, the substrate inhibition was very low and was none in maltoheptaose. Among the maltosaccharides, maltotetraose and maltopentaose were the poorest substrates.
With PNPG1 (p-nitrophenyl-α-D-glucoside), the artificial substrate of α-glucosidase, reaction rate was the lowest.
Substrate Specificity of α-1,4-Glucan lyase.
The concentration of various substrates in the reaction mixture
was 10 mg ml^-1 except PNPG1, PNPG2, PNPG7, which was 2 mM.
The incubation time was 15 min. The degrading rate of maltoheptaose
was 84 μmol min^-1. mg^-1 protein.
as §1

[4] = substrate 4 mg ml^-1, 1.64 μg enzyme
[5] = inhibitor 2 mM, amylopectin as substrate
[6] = inhibitor 2 mM, maltose as substrate
[7] = substrate 10 mM, 1.64 μg enzyme
[8] = substrate 10 mg ml^-1, 1.64 μg enzyme

Compound: Nc1ncnc2c1ncn2[C@@H]1O[C@H](COP(=O)(O)OP(=O)(O)O[C@H]2O[C@H](CO)[C@@H](O)[C@H](O)[C@H]2O)[C@@H](O)[C@H]1O [ADP-Glucose]
Product released ([1]; substrate 5 mM, 1.64 μg enzyme): 0 nmol

Compound: [Ca+2].[Cl-].[Cl-] [CaCl2]
inhibition of the enzyme ([2]; amylopectin as substrate): no inhibition | inhibition of the enzyme ([2]; maltose as substrate): no inhibition

Compound: OC[C@H]1O[C@@H](O[C@H]2[C@H](O)[C@@H](O)C(O)O[C@@H]2CO)[C@H](O)[C@@H](O)[C@@H]1O (some centres unmarked) [Cellobiose, cellobiose]
release of 1,5-anhydrofructose and glucose checked by TLC on Silica gel 60 [1]: No 1,5-anhydrofructose and glucose were released | Product released [1, 4]: 0 nmol

Compound: OC[C@H]1O[C@@H]2O[C@H]3[C@H](O)[C@@H](O)[C@@H](O[C@H]4[C@H](O)[C@@H](O)[C@@H](O[C@H]5[C@H](O)[C@@H](O)[C@@H](O[C@H]6[C@H](O)[C@@H](O)[C@@H](O[C@H]7[C@H](O)[C@@H](O)[C@@H](O[C@H]1[C@H](O)[C@H]2O)O[C@@H]7CO)O[C@@H]6CO)O[C@@H]5CO)O[C@@H]4CO)O[C@@H]3CO [Cyclohexaamylose, cyclohexaamylose]
release of 1,5-anhydrofructose and glucose checked by TLC on Silica gel 60 [1]: No 1,5-anhydrofructose and glucose were released | Product released ([1]; substrate 20 mM, 1.64 μg enzyme): 0 nmol | inhibitory effect on the enzyme activity ([2]; 4 mM, maltose as substrate): no inhibitory effect | inhibitory effect on the enzyme activity ([2]; 4 mM, soluble starch as substrate): no inhibitory effect

Compound: O=P(O)(O)O[C@H]1O[C@H](CO)[C@@H](O)[C@H](O)[C@H]1O [Glucose 1-Phosphate]
Product released [1, 7]: 0 nmol

Compound: [Cl][Hg][Cl] [HgCl2]
inhibition of the algal enzyme (in words) ([2]; no concentration): strongly inhibited

Compound: OC[C@H]1O[C@H](O[C@H]2[C@H](O)[C@@H](O)[C@@H](O[C@H]3[C@H](O)[C@@H](O)[C@@H](O[C@H]4[C@H](O)[C@@H](O)[C@@H](O[C@H]5[C@H](O)[C@@H](O)[C@@H](O[C@H]6[C@H](O)[C@@H](O)C(O)O[C@@H]6CO)O[C@@H]5CO)O[C@@H]4CO)O[C@@H]3CO)O[C@@H]2CO)[C@H](O)[C@@H](O)[C@@H]1O (some centres unmarked) [Maltohexaose, maltohexaose]
substrate inhibition [3]: very low | Activity (% of Maltoheptaose) [3]: 74.6%

Compound: OC[C@H]1O[C@H](O[C@H]2[C@H](O)[C@@H](O)[C@@H](O[C@H]3[C@H](O)[C@@H](O)[C@@H](O[C@H]4[C@H](O)[C@@H](O)[C@@H](O[C@H]5[C@H](O)[C@@H](O)C(O)O[C@@H]5CO)O[C@@H]4CO)O[C@@H]3CO)O[C@@H]2CO)[C@H](O)[C@@H](O)[C@@H]1O (some centres unmarked) [Maltopentaose, maltopentaose]
substrate inhibition [3]: showed substrate inhibition | Activity (% of Maltoheptaose) [3]: 36.6%

Compound: OC[C@H]1O[C@H](O[C@H]2[C@H](O)[C@@H](O)[C@@H](O[C@H]3[C@H](O)[C@@H](O)C(O)O[C@@H]3CO)O[C@@H]2CO)[C@H](O)[C@@H](O)[C@@H]1O (some centres unmarked) [Maltotriose, maltotriose]
substrate concentration at which the activity reached maximum [3]: 2 mg/mL | substrate inhibition [3]: showed substrate inhibition | Activity (% of Maltoheptaose) [3]: 39.1%

Compound: OC[C@H]1O[C@H](OC[C@H]2OC(O)[C@H](O)[C@@H](O)[C@@H]2O)[C@H](O)[C@@H](O)[C@H]1O (some centres unmarked) [Melibiose, melibiose]
release of 1,5-anhydrofructose and glucose checked by TLC on Silica gel 60 [1]: No 1,5-anhydrofructose and glucose were released | Product released [1, 8]: 0 nmol | inhibition of enzymic activity ([2]; amylopectin as substrate): no inhibition | inhibition of enzymic activity ([2]; maltose as substrate): no inhibition

Compound: CO[C@H]1O[C@H](CO)[C@@H](O)[C@H](O)[C@H]1O [Methyl α-D-glucoside, methyl α-D-glucoside]
release of 1,5-anhydrofructose and glucose checked by TLC on Silica gel 60 [1]: No 1,5-anhydrofructose and glucose were released | Product released [1, 7]: 0 nmol | inhibitory effect on the enzyme activity ([2]; 12 mM, maltose as substrate): no inhibitory effect | inhibitory effect on the enzyme activity ([2]; 12 mM, soluble starch as substrate): no inhibitory effect

Compound: [Cl-].[Cl-].[Mg+2] [MgCl2]
inhibition of the enzyme ([2]; amylopectin as substrate): no inhibition | inhibition of the enzyme ([2]; maltose as substrate): no inhibition

Compound: [Cl][Mn][Cl] [MnCl2]
inhibition of the enzyme ([2]; amylopectin as substrate): no inhibition | inhibition of the enzyme ([2]; maltose as substrate): no inhibition

Compound: O=C(O)c1cc[c]([Hg][Cl])cc1 [PCMB, p-chloromercuribenzoic acid]
inhibition of enzyme activity [2, 5]: around 90% | inhibition of enzyme activity [2, 6]: around 90% | inhibition of the algal enzyme (in words) ([2]; no concentration): strongly inhibited

Compound: O=[N+]([O-])c1ccc(O[C@H]2O[C@H](CO)[C@@H](O)[C@H](O)[C@@H]2O)cc1 [PNPMan, p-introphenyl-α-D-mannoside]
activity of the lyase with the substrate (in words) [1]: no activity | Product released ([1]; substrate 2 mM, 1.64 μg enzyme): 0 nmol

Compound: OC[C@H]1O[C@H](OC[C@H]2O[C@H](O[C@H]3[C@H](O)[C@@H](O)C(O)O[C@@H]3CO)[C@H](O)[C@@H](O)[C@@H]2O)[C@H](O)[C@@H](O)[C@@H]1O (some centres unmarked) [Panose, panose]
Product released [1, 4]: 13465.6 nmol

Compound: OC[C@H]1O[C@@](CO)(O[C@H]2O[C@H](CO)[C@@H](O)[C@H](O)[C@H]2O)[C@@H](O)[C@@H]1O [Sucrose, sucrose]
release of 1,5-anhydrofructose and glucose checked by TLC on Silica gel 60 [1]: No 1,5-anhydrofructose and glucose were released | Product released [1, 8]: 0 nmol | inhibition of enzymic activity ([2]; amylopectin as substrate): no inhibition | inhibition of enzymic activity ([2]; maltose as substrate): no inhibition

Compound: OC[C@@H](O)[C@@H](O)[C@H](O)[C@@H](O)CO [sorbitol]
inhibition of enzymic activity ([2]; amylopectin as substrate): no inhibition | inhibition of enzymic activity ([2]; maltose as substrate): no inhibition

Compound: arabinose
inhibition of enzymic activity ([2]; amylopectin as substrate): no inhibition | inhibition of enzymic activity ([2]; maltose as substrate): no inhibition

Compound: blocked p-nitrophenyl-α-D-maltoheptaoside [BPNPG7]
activity of the lyase with the substrate (in words) [1]: very low degrading rate; also recorded: little or no activity | Product released ([1]; substrate 2 mM, 4.91 μg enzyme): 6.16 nmol

Compound: xylose
inhibition of enzymic activity ([2]; amylopectin as substrate): no inhibition | inhibition of enzymic activity ([2]; maltose as substrate): no inhibition

The next lines start with results.

inhibition of enzyme activity ([2]; inhibitor 0.165 mM, maltose as substrate): inhibit the activity completely | inhibition of enzyme activity [2, 5]: completely inhibited | inhibition of enzyme activity [2, 6]: completely inhibited | inhibition of the algal enzyme (in words) ([2]; no concentration): strongly inhibited
Compound: OC[C@H]1NC[C@H](O)[C@@H](O)[C@@H]1O [Deoxynojirimycin, deoxynojirimycin]

Product released [1, 4]: 0 nmol
Compound: OC[C@H]1O[C@H](OC[C@H]2OC(O)[C@H](O)[C@@H](O)[C@@H]2O)[C@H](O)[C@@H](O)[C@@H]1O (some centres unmarked) [Isomaltose, isomaltose]
release of 1,5-anhydrofructose and glucose checked by TLC on Silica gel 60 [1]: No 1,5-anhydrofructose and glucose were released

inhibition of the enzyme ([2]; amylopectin as substrate): no inhibition | inhibition of the enzyme ([2]; maltose as substrate): no inhibition
Compound: [Cl-].[K+] [KCl]

Product released [1, 8]: 0 nmol | inhibition of enzymic activity ([2]; amylopectin as substrate): no inhibition | inhibition of enzymic activity ([2]; maltose as substrate): no inhibition
Compound: OC[C@H]1O[C@@H](O[C@H]2[C@H](O)[C@@H](O)C(O)O[C@@H]2CO)[C@H](O)[C@@H](O)[C@H]1O (some centres unmarked) [Lactose, lactose]
release of 1,5-anhydrofructose and glucose checked by TLC on Silica gel 60 [1]: No 1,5-anhydrofructose and glucose were released

Product released [1, 4]: 122.4 nmol | inhibition of enzymic activity ([2]; amylopectin as substrate): ~27% | inhibition of enzymic activity ([2]; maltose as substrate): around 47% | type of inhibition ([2]; maltose as substrate): competitive | inhibition of the algal enzyme (in words) ([2]; maltose as substrate): inhibited
Compound: OC[C@@H](O)[C@@H](O[C@H]1O[C@H](CO)[C@@H](O)[C@H](O)[C@H]1O)[C@H](O)[C@@H](O)CO [Maltitol, maltitol]

activity of the lyase with the substrate (in words) [1]: able to degrade | Product released [1, 4]: 13452.8 nmol
Compound: OC[C@H]1O[C@H](O[C@H]2[C@H](O)[C@@H](CO)OC(O)[C@@H]2O)[C@H](O)[C@@H](O)[C@@H]1O (some centres unmarked) [Nigerose, nigerose]

activity of the lyase with the substrate (in words) [1]: no activity | Product released ([1]; substrate 2 mM, 1.64 μg enzyme): 0 nmol
Compound: O=[N+]([O-])c1ccc(O[C@H]2O[C@H](CO)[C@H](O)[C@H](O)[C@H]2O)cc1 [PNPGal, p-nitrophenyl-α-D-galactoside]

Product released [1, 8]: 0 nmol | inhibition of enzymic activity ([2]; amylopectin as substrate): no inhibition | inhibition of enzymic activity ([2]; maltose as substrate): no inhibition
Compound: OC[C@H]1O[C@H](O[C@H]2O[C@H](CO)[C@@H](O)[C@H](O)[C@H]2O)[C@H](O)[C@@H](O)[C@@H]1O [Trehalose, trehalose]
release of 1,5-anhydrofructose and glucose checked by TLC on Silica gel 60 [1]: No 1,5-anhydrofructose and glucose were released

inhibition of enzymic activity ([2]; amylopectin as substrate): no inhibition | inhibition of enzymic activity ([2]; maltose as substrate): no inhibition
Compound: OCC(O)CO [glycerol]

inhibition of enzymic activity ([2]; amylopectin as substrate): no inhibition | inhibition of enzymic activity ([2]; maltose as substrate): no inhibition
Compound: O[C@H]1[C@H](O)[C@@H](O)[C@H](O)[C@@H](O)[C@H]1O [inositol]

Source: patent US5695970A, “Glucan lyase producing 1,5-anhydrofructose” (priority 1992, dated 1997)
